According to paper PMC9837800 (Journal of medicinal chemistry, 2022):

Assays:
[1] = target: T1, PKMYT1 (Homo sapiens, UniProt Q99640)
T1 sequence (Q99640 1-499): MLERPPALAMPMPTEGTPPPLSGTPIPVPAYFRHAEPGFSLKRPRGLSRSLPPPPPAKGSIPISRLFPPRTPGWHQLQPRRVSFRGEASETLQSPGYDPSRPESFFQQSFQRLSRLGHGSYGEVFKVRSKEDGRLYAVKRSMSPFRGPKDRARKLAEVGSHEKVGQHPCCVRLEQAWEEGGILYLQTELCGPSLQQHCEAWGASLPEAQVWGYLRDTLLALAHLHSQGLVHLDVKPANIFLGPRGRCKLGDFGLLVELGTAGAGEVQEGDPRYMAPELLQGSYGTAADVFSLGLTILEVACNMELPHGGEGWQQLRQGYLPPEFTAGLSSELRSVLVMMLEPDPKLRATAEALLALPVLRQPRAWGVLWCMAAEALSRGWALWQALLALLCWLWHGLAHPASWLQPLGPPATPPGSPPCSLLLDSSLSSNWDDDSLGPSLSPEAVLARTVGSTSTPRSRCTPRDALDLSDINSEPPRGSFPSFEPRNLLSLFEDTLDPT

[2] = system: OVCAR3 CCNE1 amplified xenograft; settings: PO twice daily (BID), OVCAR3 model ref 6; cited from earlier work
[3] = in vivo; settings: male, beagle, dog, plasma, iv, 0.5 mg/kg
[4] = CD-1 mouse pharmacokinetic study; settings: female, in vivo, iv, 1 mg/kg
[5] = in vitro; settings: human, Caco-2
[6] = in vivo; settings: male, Sprague-Dawley, rat, iv, 1 mg/kg
[7] = in vitro; settings: human, hepatocytes
[8] = in vivo; settings: male, cynomolgus monkey, plasma, iv, 0.5 mg/kg
[9] = target: T1, PKMYT1; assay: Fluorescence polarization competitive displacement screen with Tracer 178; settings: Tracer 178 binding probe

SMILES: Cc1ccc(C(F)F)cc1-n1c(N)c(C(N)=O)c2nc3ccccc3nc21 [Compound 14, 2-amino-1-[5-(difluoromethyl)-2-methyl-phenyl]pyrrolo[3,2-b]quinoxaline-3-carboxamide]
- PKMYT1 inhibition in biochemical ADP release enzymatic assay (in words) [1]: inactive

SMILES: Cc1cc2c(C(N)=O)c(N)n(-c3c(C)ccc(O)c3C)c2nc1C [RP-6306, (S)-2-amino-1-(3-hydroxy-2,6-dimethyl-phenyl)-5,6-dimethyl-pyrrolo[2,3-b]pyridine-3-carboxamide]
- maximum tolerated dose [2]: 20 mg/kg
- clearance at 24 h [3]: 13.1 mL/min/kg
- clearance at 24 h [4]: 30.4 mL/min/kg

SMILES: NC(=O)c1c(N)n(-c2cccc3[nH]nnc23)c2nc3ccccc3nc12 [Compound 12, 2-amino-1-(1H-benzotriazol-4-yl)pyrrolo[3,2-b]quinoxaline-3-carboxamide]
- PKMYT1 inhibition in biochemical ADP release enzymatic assay (in words) [1]: inactive

SMILES: Cc1ccccc1-n1c(N)c(C(N)=O)c2nc3ccccc3nc21 [Compound 2, reference compound]
- PKMYT1 inhibition in biochemical ADP release enzymatic assay (in words) [1]: inactive

SMILES: NC(=O)c1c(N)n(-c2c(Cl)ccc(O)c2Cl)c2nc3ccccc3nc12 [Compound 18, 2-amino-1-(2,6-dichloro-3-hydroxy-phenyl)pyrrolo[3,2-b]quinoxaline-3-carboxamide]
- Papp A→B [5]: 18.8 ×10⁻⁶ cm/s

SMILES: NC(=O)c1c(N)n(-c2cccc3[nH]cnc23)c2nc3ccccc3nc12 [Compound 13, 2-amino-1-(1H-benzimidazol-4-yl)pyrrolo[3,2-b]quinoxaline-3-carboxamide]
- PKMYT1 inhibition in biochemical ADP release enzymatic assay (in words) [1]: inactive

SMILES: Cc1ccc(O)c(C)c1-n1c(N)c(C(N)=O)c2cc(Cl)cnc21 [Compound 55, (S)-2-amino-5-chloro-1-(3-hydroxy-2,6-dimethyl-phenyl)pyrrolo[2,3-b]pyridine-3-carboxamide]
- clearance at 24 h [6]: 25.6 mL/min/kg
- hepatocyte CLint [7]: 4.5 µL/min/1e6 cells
- clearance at 24 h [3]: 21.3 mL/min/kg
- clearance at 24 h [4]: 59.2 mL/min/kg
- clearance at 24 h [8]: 19.4 mL/min/kg

SMILES: Cc1c(O)ccc(Cl)c1-n1c(N)c(C(N)=O)c2nc3ccccc3nc21 [Compound 17, 2-amino-1-(6-chloro-3-hydroxy-2-methyl-phenyl)pyrrolo[3,2-b]quinoxaline-3-carboxamide]
- Papp A→B [5]: 14.1 ×10⁻⁶ cm/s

SMILES: Cc1nc(Nc2ncc(C(=O)Nc3c(C)cccc3Cl)s2)cc(N2CCN(CCO)CC2)n1 [dasatinib]
- result in focused screen of 560 known kinase inhibitors [9]: potent hits

SMILES: Cc1ccc(N)cc1-n1c(N)c(C(N)=O)c2nc3ccccc3nc21 [Compound 9, 2-amino-1-(5-amino-2-methyl-phenyl)pyrrolo[3,2-b]quinoxaline-3-carboxamide]
- PKMYT1 inhibition in biochemical ADP release enzymatic assay (in words) [1]: inactive

SMILES: Cc1cc(O)ccc1-n1c(N)c(C(N)=O)c2nc3ccccc3nc21 [Compound 3, 2-amino-1-(4-hydroxy-2-methyl-phenyl)pyrrolo[3,2-b]quinoxaline-3-carboxamide]
- PKMYT1 inhibition in biochemical ADP release enzymatic assay (in words) [1]: inactive

SMILES: NC(=O)c1c(N)n(-c2cccc3[nH]ccc23)c2nc3ccccc3nc12 [Compound 11, 2-amino-1-(1H-indol-4-yl)pyrrolo[3,2-b]quinoxaline-3-carboxamide]
- PKMYT1 inhibition in biochemical ADP release enzymatic assay (in words) [1]: inactive
